pIC50: −log10 of the molar value.
Test system: HCV replicon
Experiment: HCV replicon luciferase reporter assay
Format: cell-based
Set-up: scale not given here
Conditions: Hepatitis C virus, Table 5; read-out: IC50
Outline: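 Replicon-bearing dividing cells seeded at 5,000–7,500 cells/well, grown 24 h at 37° C/5% CO2, then exposed to test compound at various concentrations for a further 24–48 h. Replication/translation read by luciferase reporter; IC50 taken as compound amount giving 50% reduction in luciferase activity.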

`O=C(NCCCNc1nsc2ccccc12)c1cccc(-c2ccc(Cl)nc2)c1` [Compound 380, N-(3-(benzo[d]isothiazol-3-ylamino)propyl)-3-(6-chloropyridin-3-yl)benzamide] and `O=C(NCCNc1nsc2ccccc12)c1cccc(-c2cnc3ccccc3c2)c1` [Compound 375, N-(2-(benzo[d]isothiazol-3-ylamino)ethyl)-3-(quinolin-3-yl)benzamide] cannot be ordered by pIC50: > 5.30 for the first, > 5.30 for the second.

`c1ccc2oc(CNCCCNc3nsc4ccccc34)cc2c1` [Compound 337, N^1-(benzo[d]isothiazol-3-yl)-N^3-(benzofuran-2-ylmethyl)propane-1,3-diamine] and `Brc1cccc(CNCCCNc2nsc3ccccc23)c1` [Compound 299, N^1-(benzo[d]isothiazol-3-yl)-N^3-(3-bromobenzyl)propane-1,3-diamine] cannot be ordered by pIC50: > 5.30 for the first, > 5.30 for the second.

`COC(=O)c1ccc(C(=O)NCCNc2nsc3ccccc23)nc1` [Entry 77, Methyl 6-(2-(Benzo[d]isothiazol-3-ylamino)ethylcarbamoyl)nicotinate] and `Cc1cccc(C(=O)NCCNc2nsc3ccccc23)n1` [Entry 13, N-(2-(Benzo[d]isothiazol-3-ylamino)ethyl)-6-methylpicolinamide] cannot be ordered by pIC50: < 5.30 for the first, < 5.30 for the second.

Compared with `c1ccc(CNCCCNc2nsc3ccccc23)nc1` [Compound 309, N^1-(benzo[d]isothiazol-3-yl)-N^3-(pyridin-2-ylmethyl)propane-1,3-diamine], `Cc1ccnc(NCCCNc2nsc3ccccc23)c1` [Entry 227, N-(3-(4-methylpyridin-2-ylamino)propyl)benzo[d]isothiazol-3-amine] is higher in pIC50: < 5.30 for the first, > 5.30 for the second.

`COc1ccc(-c2cccc(C(=O)NCCNc3nsc4ccccc34)c2)cc1` [Compound 371, N-(2-(benzo[d]isothiazol-3-ylamino)ethyl)-4′-methoxybiphenyl-3-carboxamide] and `COc1ccc(-c2cccc(C(=O)NCCNc3nsc4ccccc34)c2)cc1OC` [Compound 370, N-(2-(benzo[d]isothiazol-3-ylamino)ethyl)-3′,4′-dimethoxybiphenyl-3-carboxamide] cannot be ordered by pIC50: > 5.30 for the first, > 5.30 for the second.

`CCCCOc1cc(C(=O)NCCNc2nsc3ccc(NCCC)cc23)ccc1OC` [Compound 310, 3-butoxy-4-methoxy-N-(2-(5-(propylamino)benzo[d]isothiazol-3-ylamino)ethyl)benzamide] and `CCCCCOc1ccc(C(=O)NCCNc2nsc3ccc(Cl)cc23)cc1` [Compound 423, N-(2-(5-chlorobenzo[d]isothiazol-3-ylamino)ethyl)-4-(pentyloxy)benzamide] cannot be ordered by pIC50: > 5.30 for the first, > 5.30 for the second.

`COc1ccc(-c2ccc(S(=O)(=O)NCCCNc3nsc4ccccc34)cc2)cc1` [Compound 331, N-(3-(benzo[d]isothiazol-3-ylamino)propyl)-4′-methoxybiphenyl-4-sulfonamide] and `COc1ccc(-c2ccc(CNCCCNc3nsc4ccccc34)cc2)cc1` [Compound 291, N^1-(benzo[d]isothiazol-3-yl)-N^3-((4′-methoxybiphenyl-4-yl)methyl)propane-1,3-diamine] cannot be ordered by pIC50: > 5.30 for the first, > 5.30 for the second.

`O=C(NCCCNc1nsc2ccccc12)c1cc2ccc([N+](=O)[O-])cc2s1` [Compound 433, N-(3-(benzo[d]isothiazol-3-ylamino)propyl)-6-nitrobenzo[b]thiophene-2-carboxamide] and `CCCC(=O)Nc1ccc2sc(C(=O)NCCCNc3nsc4ccccc34)cc2c1` [Compound 457, N-(3-(benzo[d]isothiazol-3-ylamino)propyl)-5-butyramidobenzo[b]thiophene-2-carboxamide] cannot be ordered by pIC50: > 5.30 for the first, > 5.30 for the second.

`O=C(NCCCNc1nsc2ccccc12)c1ccc(OCc2ccncc2)cc1` [Entry 235, N-(3-(benzo[d]isothiazol-3-ylamino)propyl)-4-(pyridin-4-ylmethoxy)benzamide] and `COc1ccc(COc2ccc(C(=O)NCCCNc3nsc4ccccc34)cc2)cc1OC` [Entry 237, N-(3-(benzo[d]isothiazol-3-ylamino)propyl)-4-(3,4-dimethoxybenzyloxy)benzamide] cannot be ordered by pIC50: > 5.30 for the first, > 5.30 for the second.

`COc1ccc(-c2cccc(CNCCCNc3nsc4ccccc34)c2)cc1OC` [Compound 301, N^1-(benzo[d]isothiazol-3-yl)-N^3-((4′,5′-dimethoxybiphenyl-3-yl)methyl)propane-1,3-diamine] and `COc1ccc(S(=O)(=O)NCCCNc2nsc3ccccc23)cc1OC` [Compound 264, N-(3-(benzo[d]isothiazol-3-ylamino)propyl)-3,4-dimethoxybenzenesulfonamide] cannot be ordered by pIC50: > 5.30 for the first, > 5.30 for the second.

`COc1ccc(-c2ccc(C(=O)NCCCNc3nsc4cc(S(N)(=O)=O)ccc34)cc2)cc1` [Compound 402, 4′-methoxy-N-(3-(6-sulfamoylbenzo[d]isothiazol-3-ylamino)propyl)biphenyl-4-carboxamide] and `COc1ccc(-c2ccc(CN(CCCNc3nsc4ccccc34)C(=O)CS(C)(=O)=O)cc2)cc1` [Compound 339, N-(3-(benzo[d]isothiazol-3-ylamino)propyl)-N-((4′-methoxybiphenyl-4-yl)methyl)-2-(methylsulfonyl)acetamide] cannot be ordered by pIC50: > 5.30 for the first, > 5.30 for the second.

`COc1ccc(-c2ccc(CN(CCCNc3nsc4ccccc34)C(=O)N(C)C)cc2)cc1` [Compound 315, 1-(3-(benzo[d]isothiazol-3-ylamino)propyl)-1-((4′-methoxybiphenyl-4-yl)methyl)-3,3-dimethylurea] and `COc1ccc(-c2ccc(CN(CCCNc3nsc4ccccc34)C(=O)N3CCOCC3)cc2)cc1` [Compound 314, N-(3-(benzo[d]isothiazol-3-ylamino)propyl)-N-((4′-methoxybiphenyl-4-yl)methyl)morpholine-4-carboxamide] cannot be ordered by pIC50: > 5.30 for the first, > 5.30 for the second.

Going from `O=C(NCCNc1nsc2ccccc12)c1cccc(C(=O)NC2CC2)c1` [Compound 431, N^1-(2-(benzo[d]isothiazol-3-ylamino)ethyl)-N^3-cyclopropylisophthalamide] to `O=C(NCCNc1nsc2ccccc12)c1cccc(Cl)c1` [Entry 33, N-(2-(Benzo[d]isothiazol-3-ylamino)ethyl)-3-chlorobenzamide], the pIC50 falls from > 5.30 to < 5.30.

`COc1ccc(-c2ccc(CNCCCNc3nsc4ccc(-c5cc(F)cc(F)c5)cc34)cc2)cc1` [Compound 411, N^1-(5-(3,5-difluorophenyl)benzo[d]isothiazol-3-yl)-N^3-((4′-methoxybiphenyl-4-yl)methyl)propane-1,3-diamine] and `COc1ccc(-c2ccc(CNCCCNc3nsc4nccnc34)cc2)cc1` [Entry 241, N^1-(isothiazolo[5,4-b]pyrazin-3-yl)-N^3-((4′-methoxybiphenyl-4-yl)methyl)propane-1,3-diamine] cannot be ordered by pIC50: > 5.30 for the first, > 5.30 for the second.

`O=S(=O)(NCCCNc1nsc2ccccc12)c1c(F)cc(F)cc1Br` [Compound 253, N-(3-(benzo[d]isothiazol-3-ylamino)propyl)-2-bromo-4,6-difluorobenzenesulfonamide] and `Cc1nc(S(=O)(=O)NCCCNc2nsc3ccccc23)cn1C` [Compound 248, N-(3-(benzo[d]isothiazol-3-ylamino)propyl)-1,2-dimethyl-1H-imidazole-4-sulfonamide] cannot be ordered by pIC50: > 5.30 for the first, > 5.30 for the second.

`CC(C)(C)OC(=O)N[C@H](C(=O)NCCNc1nsc2ccc(Cl)cc12)c1ccccc1` [Compound 425, (S)-tert-butyl 2-(2-(5-chlorobenzo[d]isothiazol-3-ylamino)ethylamino)-2-oxo-1-phenylethylcarbamate] and `COc1ccc(Cl)cc1-c1ccc(C(=O)NCCNc2nsc3ccccc23)cc1` [Compound 362, N-(2-(benzo[d]isothiazol-3-ylamino)ethyl)-5′-chloro-2′-methoxybiphenyl-4-carboxamide] cannot be ordered by pIC50: > 5.30 for the first, > 5.30 for the second.

`O=C(NCCNc1nsc2ccccc12)c1cc(F)cc(C(F)(F)F)c1` [Compound 353, N-(2-(benzo[d]isothiazol-3-ylamino)ethyl)-3-fluoro-5-(trifluoromethyl)benzamide] and `O=C(NCCNc1nsc2ccccc12)c1cc(C(F)(F)F)ccc1C(F)(F)F` [Compound 357, N-(2-(benzo[d]isothiazol-3-ylamino)ethyl)-2,5-bis(trifluoromethyl)benzamide] cannot be ordered by pIC50: > 5.30 for the first, > 5.30 for the second.

`COc1ccc(OC)c(S(=O)(=O)NCCCNc2nsc3ccccc23)c1` [Compound 261, N-(3-(benzo[d]isothiazol-3-ylamino)propyl)-2,5-dimethoxybenzenesulfonamide] and `COc1cccc(-c2ccc(C(=O)NCCNc3nsc4ccccc34)cc2)c1OC` [Compound 364, N-(2-(benzo[d]isothiazol-3-ylamino)ethyl)-2′,3′-dimethoxybiphenyl-4-carboxamide] cannot be ordered by pIC50: > 5.30 for the first, > 5.30 for the second.

Compared with `COc1ccc(-c2ccc(CN(CCCNc3nsc4ccccc34)S(=O)(=O)c3ccccc3C(F)(F)F)cc2)cc1` [Compound 270, N-(3-(benzo[d]isothiazol-3-ylamino)propyl)-N-((4′-methoxybiphenyl-4-yl)methyl)-2-(trifluoromethyl)benzenesulfonamide], `COc1ccc(-c2ccc(CN(C)CCCN(C)c3nsc4ccccc34)cc2)cc1` [Compound 347, N^1-(benzo[d]isothiazol-3-yl)-N^3-((4′-methoxybiphenyl-4-yl)methyl)-N^1,N^3-dimethylpropane-1,3-diamine] is lower in pIC50: > 5.30 for the first, < 5.30 for the second. The first is the more potent here.

First: CCCCNc1cccc(C(=O)NCCCNc2nsc3ccccc23)n1 [Compound 448, N-(3-(benzo[d]isothiazol-3-ylamino)propyl)-6-(butylamino)picolinamide]
Second: CC(C)(C)OC(=O)N1CCC(NCCCNc2nsc3ccccc23)CC1 [Compound 307, tert-butyl 4-(3-(benzo[d]isothiazol-3-ylamino)propylamino)piperidine-1-carboxylate]
The pIC50 of the first is lower: < 5.30 for the first, > 5.30 for the second. The second is the more potent here.

Same assay, conditions: Table 5; read-out: IC50

With `CC(C)(C)NS(=O)(=O)c1cccc2c(NCCCN)nsc12` [Compound 507, 3-(3-aminopropylamino)-N-tert-butylbenzo[d]isothiazole-7-sulfonamide] the pIC50 was < 5.30.

Same assay, conditions: Table 5; the head prints only IC50; b387 says Tables 5 and 6 hold Replicon reporter and Western blot results

With `O=C(NCCNc1nsc2ccccc12)c1ccc(F)c(F)c1` [Compound 359, N-(2-(benzo[d]isothiazol-3-ylamino)ethyl)-3,4-difluorobenzamide] the IC50 was “A, B”.
